Measured values published in patent US20110086834A1, “ALKYNYL ALCOHOLS AS KINASE INHIBITORS” (AMGEN INC., priority 2008, published 2011).

target: T1, NIK (Homo sapiens, UniProt Q99558); assay: homogenous time resolved fluorescence (HTRF) assay for NIK Ki measurement; type: biochemical; details: truncated NIK (catalytic domain only), autophosphorylation; 10 nM enzyme; 20, 100, 200 or 500 μM ATP; room temperature, 2 hours; read-out: Ki activity in the homogenous time resolved fluorescence (HTRF) assay for NIK
T1 construct: Both assays utilize a truncated form of NIK containing only the catalytic domain; made in house; host or cells: baculovirus expression system (insect cells implied)
T1 sequence (Q99558 400-655 limits assumed): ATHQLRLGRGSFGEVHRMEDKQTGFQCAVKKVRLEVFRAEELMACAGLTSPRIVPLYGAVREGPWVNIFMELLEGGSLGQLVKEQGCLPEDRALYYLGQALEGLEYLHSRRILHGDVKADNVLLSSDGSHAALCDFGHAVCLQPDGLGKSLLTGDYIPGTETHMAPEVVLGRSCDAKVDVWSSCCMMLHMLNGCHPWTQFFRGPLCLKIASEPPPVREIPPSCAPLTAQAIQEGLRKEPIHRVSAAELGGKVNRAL

Ki [nM]	SMILES
< 1000	CC(O)(C#Cc1ccc2c(c1)N(c1nc(N)ncc1Cl)CC2(CO)CO)c1nccs1 (stereo not drawn) [Example 60, 4-(1-(2-amino-5-chloro-4-pyrimidinyl)-3,3-bis(hydroxymethyl)-2,3-dihydro-1H-indol-6-yl)-2-(1,3-thiazol-2-yl)-3-butyn-2-ol]
< 1000	CC(O)(C#Cc1ccc2c(c1)N(c1nc(N)ncc1Cl)CC21CCSCC1)c1nccs1 (racemic) [Example 214, (rac)-4-(1-(2-Amino-5-chloro-4-pyrimidinyl)-1,2,2′,3′,5′,6′-hexahydrospiro[indole-3,4′-thiopyran]-6-yl)-2-(1,3-thiazol-2-yl)-3-butyn-2-ol]
< 1000	Cc1cc([C@@](C)(O)C#Cc2ccc3c(c2)N(c2ncns2)CC3(C)C)no1 [Example 15, (S)-4-(3,3-dimethyl-1-(1,2,4-thiadiazol-5-yl)indolin-6-yl)-2-(5-methylisoxazol-3-yl)but-3-yn-2-ol]
< 1000	CC(O)(C#Cc1ccc2c(c1)N(c1ccncc1)CC2(C)C)c1ccccn1 (stereo not drawn) [Example 310, 4-(3,3-Dimethyl-1-(4-pyridinyl)-2,3-dihydro-1H-indol-6-yl)-2-(2-pyridinyl)-3-butyn-2-ol]
< 1000	COc1cc(C#CC2(O)CCCC2)cc2c1ccn2-c1ccnc(N)n1 [Example 98, 1-(2-(1-(2-aminopyrimidin-4-yl)-4-methoxy-1H-indol-6-yl)ethynyl)cyclopentanol]
< 1000	CC(=O)n1cc(-c2nc(N)ncc2Cl)c2cc(C#CC3(O)CCCC3)ccc21 [Example 120, 1-(3-(2-amino-5-chloropyrimidin-4-yl)-5-(2-(1-hydroxycyclopentyl)ethynyl)-1H-indol-1-yl)ethanone]
< 1000	CCN(CC)C(=O)Cn1cc(-c2nc(N)ncc2Cl)c2cc(C#CC3(O)CCCC3)ccc21 [Example 129, 2-(3-(2-amino-5-chloropyrimidin-4-yl)-5-(2-(1-hydroxycyclopentyl)ethynyl)-1H-indol-1-yl)-N,N-diethylacetamide]
< 1000	CC(O)(C#Cc1cccc(Nc2ccncn2)n1)c1nccs1 (stereo not drawn) [Example 173, 4-(6-(pyrimidin-4-ylamino)pyridin-2-yl)-2-(thiazol-2-yl)but-3-yn-2-ol]
< 1000	CC(O)(C#Cc1ccc2c(c1)N(c1ccnc(N)n1)CC2)c1ccccc1 (stereo not drawn) [Example 267, 4-(1-(2-Amino-4-pyrimidinyl)-2,3-dihydro-1H-indol-6-yl)-2-phenyl-3-butyn-2-ol]
< 1000	CC(O)(C#Cc1ccc2c(c1)N(c1nc(N)ncc1Cl)CC2)c1ncc(CO)s1 (stereo not drawn) [Example 8, 4-(1-(2-amino-5-chloropyrimidin-4-yl)indolin-6-yl)-2-(5-(hydroxymethyl)thiazol-2-yl)but-3-yn-2-ol]
1000 to 30000	Cc1ccc(C#CC(C)(O)c2nccs2)cc1Nc1ccc(C#N)cn1 (stereo not drawn) [Example 170, 6-(5-(3-Hydroxy-3-(thiazol-2-yl)but-1-ynyl)-2-methylphenylamino)nicotinonitrile]
< 1000	CC(C)(C#Cc1ccc2c(c1)N(c1nc(N)ncc1Cl)CC2(C)CO)CO (single isomer, unassigned) [Example 58, 4-((3S*)-1-(2-amino-5-chloro-4-pyrimidinyl)-3-(hydroxymethyl)-3-methyl-2,3-dihydro-1H-indol-6-yl)-2,2-dimethyl-3-Butyn-1-ol]
< 1000	COc1ccc(C#CC(C)(O)c2cc(C)no2)cc1Nc1nc(N)ncc1Cl (stereo not drawn) [Example 144, 4-(3-((2-amino-5-chloro-4-pyrimidinyl)amino)-4-(methyloxy)phenyl)-2-(3-methyl-5-isoxazolyl)-3-butyn-2-ol]
< 1000	Cc1ccnc(C(C)(O)C#Cc2ccc3c(c2)N(c2nc(N)ncc2Cl)CC3)c1 (stereo not drawn) [Example 5, 4-(1-(2-amino-5-chloropyrimidin-4-yl)indolin-6-yl)-2-(4-methylpyridin-2-yl)but-3-yn-2-ol]
< 1000	CC(O)(C#Cc1ccc2c(c1)N(c1nc(N)ncc1Cl)CC2(C)C)c1nccs1 (racemic) [Example 39, 4-(1-(2-amino-5-chloro-4-pyrimidinyl)-3,3-dimethyl-2,3-dihydro-1H-indol-6-yl)-2-(1,3-thiazol-2-yl)-3-Butyn-2-ol]
< 1000	COCCN1Cc2cnc(N)nc2-c2c(n(C)c3ccc(C#CC4(O)CCCC4)cc23)C1=O [Example 246, 2-Amino-1′-((1-hydroxycyclopentyl)ethynyl)-6-(2-methoxyethyl)-8-methyl-5,8-dihydropyrimido[4′,5′:5,6]azepino[3,4-b]indol-7(6H)-one]
< 1000	CN1Cc2cnc(N)nc2-c2c(n(C)c3ccc(C#CC4(O)CCCC4)cc23)C1=O [Example 244, 2-Amino-1′-((1-hydroxycyclopentyl)ethynyl)-6,8-dimethyl-5,8-dihydropyrimido[4′,5′:5,6]azepino[3,4-b]indol-7(6H)-one]
< 1000	COc1ccc(C#CC(C)(O)c2cc(C)on2)cc1Nc1nc(N)ncc1Cl (stereo not drawn) [Example 150, 4-(3-(2-Amino-5-chloropyrimidin-4-ylamino)-4-methoxyphenyl)-2-(5-methylisoxazol-3-yl)but-3-yn-2-ol]

Ki [nM]	SMILES
< 1000	CC(C)(O)C#Cc1ccc2nc3c(n2c1)-c1nc(N)ncc1CCC3 [Example 250, 4-(2-Amino-6,7-dihydro-5H-pyrido[1″,2″:1′,2′]imidazo[4′,′:6,7]cyclohepta[1,2-d]pyrimidin-11-yl)-2-methyl-3-butyn-2-ol]
< 1000	C[C@@](O)(C#Cc1ccc2c(c1)N(c1nc(N)ncc1Cl)CC21CN(CCS(C)(=O)=O)C1)c1nccs1 [Example 184, (R)-4-(1′-(2-amino-5-chloropyrimidin-4-yl)-1-(2-(methylsulfonyl)ethyl)spiro[azetidine-3,3′-indoline]-6′-yl)-2-(thiazol-2-yl)but-3-yn-2-ol]
< 1000	C[C@@](O)(C#Cc1ccc2c(c1)N(c1nc(N)ncc1Cl)CC21CS(=O)(=O)C1)c1nccs1 [Example 213, (2R)-4-(1-(2-Amino-5-chloro-4-pyrimidinyl)-1′,1′-dioxido-1,2-dihydrospiro[indole-3,3′-thietan]-6-yl)-2-(1,3-thiazol-2-yl)-3-butyn-2-ol]
< 1000	CC1(CCC#N)CN(c2nc(N)ncc2F)c2cc(C#CC3(O)CCCC3)ccc21 (stereo not drawn) [Example 67, 3-(1-(2-amino-5-fluoro-4-pyrimidinyl)-6-((1-hydroxycyclopentyl)ethynyl)-3-methyl-2,3-dihydro-1H-indol-3-yl)propanenitrile]
< 1000	CC(O)(C#Cc1ccc(O[C@H]2CCOC2)c(Nc2nc(N)ncc2Cl)c1)c1nccs1 (stereo partly drawn) [Example 155]
< 1000	Nc1ncc(F)c(-c2c[nH]c3ccc(C#CC4(O)CCCC4)cc23)n1 [Example 95, 1-(2-(3-(2-amino-5-fluoropyrimidin-4-yl)-1H-indol-5-yl)ethynyl)cyclopentanol]
< 1000	CC(=O)Nc1cc(C#CC2(O)CCCC2)cc2c1CCN2c1nc(N)ncc1Cl [Example 19, N-(1-(2-amino-5-chloropyrimidin-4-yl)-6-(2-(1-hydroxycyclopentyl)ethynyl)indolin-4-yl)acetamide]
< 1000	C[C@@](O)(C#Cc1ccc2c(c1)N(c1nc(N)ncc1Cl)CC21CCS(=O)(=O)CC1)c1nccs1 [Example 218, (2R)-4-(1-(2-Amino-5-chloro-4-pyrimidinyl)-1′,1′-dioxido-1,2,2′,3′,5′,6′-hexahydrospiro[indole-3,4′-thiopyran]-6-yl)-2-(1,3-thiazol-2-yl)-3-butyn-2-ol]
< 1000	Nc1ncc(Cl)c(-c2cn(CC3CCCN3)c3ccc(C#CC4(O)CCCC4)cc23)n1 (stereo not drawn) [Example 113, 1-(2-(3-(2-amino-5-chloropyrimidin-4-yl)-1-(pyrrolidin-2-ylmethyl)-1H-indol-5-yl)ethynyl)cyclopentanol]
< 1000	Cc1cnc(C(C)(O)C#Cc2ccc3c(c2)N(c2ccncc2)CC3(C)C)s1 (stereo not drawn) [Example 311, 4-(3,3-Dimethyl-1-(4-pyridinyl)-2,3-dihydro-1H-indol-6-yl)-2-(5-methyl-1,3-thiazol-2-yl)-3-butyn-2-ol]
< 1000	Cn1cc(-c2ccncn2)c2cc(C#CC(C)(O)c3cscn3)ccc21 (stereo not drawn) [Example 118, 4-(1-methyl-3-(pyrimidin-4-yl)-1H-indol-5-yl)-2-(thiazol-4-yl)but-3-yn-2-ol]
< 1000	CC(O)(C#Cc1ccc2c(c1)N(c1nc(N)ncc1Cl)CC21CCCC1)c1nccs1 (stereo not drawn) [Example 317, 4-(1′-(2-amino-5-chloro-4-pyrimidinyl)-1′,2′-dihydrospiro[cyclopentane-1,3′-indol]-6′-yl)-2-(1,3-thiazol-2-yl)-3-Butyn-2-ol]
1000 to 30000	CNc1ncc2c(n1)-c1c(nc3ccc(C#CC(C)(C)O)cn13)CCC2 [Example 252, 2-methyl-4-(2-(methylamino)-6,7-dihydro-5H-pyrido[1″,2″:1′,2′]imidazo[4′,′:6,7]-cyclohepta[1,2-d]pyrimidin-11-yl)-3-butyn-2-ol]
< 1000	C[C@@](O)(C#Cc1ccc2c(c1)N(c1ccnc(N)n1)CC2)c1nccs1 [Example 294, (2R)-4-(1-(2-amino-4-pyrimidinyl)-2,3-dihydro-1H-indol-6-yl)-2-(1,3-thiazol-2-yl)-3-Butyn-2-ol]
< 1000	CC(O)(C#Cc1ccc2c(c1)N(c1ccnc(N)n1)CC2)c1ccsc1 (stereo not drawn) [Example 274, 4-(1-(2-Amino-4-pyrimidinyl)-2,3-dihydro-1H-indol-6-yl)-2-(3-thienyl)-3-butyn-2-ol]
< 1000	CC(C)(C)NC(=O)c1ccc(-c2[nH]c3ccc(C#CC4(O)CCCC4)cc3c2-c2ccnc(N)n2)cc1 [Example 93, 4-(3-(2-aminopyrimidin-4-yl)-5-(2-(1-hydroxycyclopentyl)ethynyl)-1H-indol-2-yl)-N-tert-butylbenzamide]
< 1000	Nc1ncc2c(n1)-c1c([nH]c3ccc(C#CC4(O)CCCCC4)cc13)CCC2 [Example 239, 1-((2-Amino-5,6,7,8-tetrahydropyrimido[4′,′:3,4]cyclohepta[1,2-b]indol-11-yl)ethynyl)cyclohexanol]
< 1000	CC1(CO)CN(c2nc(N)ncc2Cl)c2cc(C#CC3(O)CCCC3)ccc21 (stereo not drawn) [Example 54, 1-((1-(2-amino-5-chloro-4-pyrimidinyl)-3-(hydroxymethyl)-3-methyl-2,3-dihydro-1H-indol-6-yl)ethynyl)cyclopentanol]
